Assays:
[1] = test system: downy mildew (Plasmopara viticola) on grape; conditions: in vivo
[2] = test system: late blight on tomato; type: in vivo, Plasmopara viticola; conditions: tomato (Hofuku), therapeutic effect, sprayed after inoculation, active ingredient 100 ppm, disease severity 7 days after inoculation

Compound	Control value (%) [1] [%]	Control value (%) [2] [%]
Cn1nnnc1C(=NOCc1csc(NC(=O)C(C)(C)C)n1)c1cccc(F)c1 [(8)-7]	70	80
CCCCCC(=O)Nc1nc(CON=C(c2ccccc2)c2nnnn2C)cs1 [(2)-12]	90	100
CCCCOC(=O)Nc1cccc(CON=C(c2ccccc2)c2nnnn2C)n1 [(3)-5]	100	100
Cn1nnnc1C(=NOCc1cccc(NC(=O)CC(C)(C)C)n1)c1ccccc1 [(1)-16]	70	100
CCCCCCOC(=O)Nc1nc(CON=C(c2ccccc2)c2nnnn2C)cs1 [(4)-15]	70	80
CSCCC(=O)Nc1nc(CON=C(c2ccccc2)c2nnnn2C)cs1 [(6)-6]	70	80
CCCCOC(=O)Nc1cccc(CON=C(c2ccc(C#N)cc2)n2nnnc2C)n1 [(19)-25]	90	90
CC(C)C(=O)Nc1cccc(CON=C(c2ccccc2)c2nnnn2C)n1 [(1)-7]	100	100
CCCCOC(=O)Nc1cccc(CON=C(c2cccc(Cl)c2)n2nnnc2C)n1 [(19)-13]	100	100
CC(C)OC(=O)Nc1cccc(CON=C(c2ccc(F)cc2)c2nnnn2C)n1 [(9)-2]	70	80
CCCCCC(=O)Nc1cccc(CON=C(c2ccccc2)c2nnnn2C)n1 [(1)-12, (Z)-(1-methyltetrazol-5-yl)phenylmethanoneoxime 0-(6-(hexanoylamino)pyridin-2-yl)methyloxime]	100	100
CCCCOC(=O)Nc1cccc(CON=C(c2ccc(C)cc2)n2nnnc2C)n1 [(19)-16]	100	100
CCOC(=O)Nc1cccc(CON=C(c2ccccc2)c2nnnn2C)n1 [(3)-2]	70	90
CCCCCC(=O)Nc1cccc(CON=C(c2ccc(C)cc2)c2nnnn2C)n1 [(7)-12]	100	100
Cn1nnnc1C(=NOCc1cccc(NC(=O)C2CC2)n1)c1ccc(Cl)cc1 [(7)-3]	80	80
CCCCOC(=O)Nc1cccc(CON=C(c2ccccc2)n2nnnc2C)n1 [(19)-33]	100	100
Cn1nnnc1C(=NOCc1csc(NC(=O)CC(C)(C)C)n1)c1ccccc1 [(2)-16]	90	100
Cn1nnnc1C(=NOCc1cccc(NC(=O)OCc2ccccc2)n1)c1ccccc1 [(3)-18]	100	100
CCCCC(=O)Nc1cccc(CON=C(c2ccccc2)c2nnnn2C)n1 [(1)-8]	70	90
CCCCC(=O)Nc1cccc(CON=C(c2ccccc2)n2nnnc2C)n1 [(11)-8]	100	100
CCCCCC(=O)Nc1cccc(CON=C(c2cccc(C)c2)c2nnnn2C)n1 [(9)-7]	100	100
Cn1nnnc1C(=NOCc1cccc(NC(=O)OC(C)(C)C)n1)c1ccc(F)cc1 [(9)-3]	70	90

Compound	Control value (%) [1] [%]	Control value (%) [2] [%]
CC(C)C(=O)Nc1nc(CON=C(c2ccccc2)c2nnnn2C)cs1 [(2)-7]	90	100
C=C(C)C(=O)Nc1nc(CON=C(c2ccccc2)c2nnnn2C)cs1 [(6)-7]	100	100
CCCOC(=O)Nc1cccc(CON=C(c2ccccc2)c2nnnn2C)n1 [(3)-3]	90	100
CCCC(=O)Nc1cccc(CON=C(c2ccc(Cl)cc2)n2nnnc2C)n1 [(17)-1]	100	100
Cn1nnnc1C(=NOCc1cccc(NC(=O)C2CC2)n1)c1ccccc1 [(1)-21]	70	90
Cn1nnnc1C(=NOCc1cccc(NC(=O)Cc2ccccc2)n1)c1ccccc1 [(5)-12]	100	100
CCCCOC(=O)Nc1cccc(CON=C(c2ccc(Cl)cc2)n2nnnc2C)n1 [(19)-14]	80	100
CCCOCCC(=O)Nc1nc(CON=C(c2ccccc2)c2nnnn2C)cs1 [(6)-15]	70	90
CCCCOC(=O)Nc1cccc(CON=C(c2ccc(CC)cc2)n2nnnc2C)n1 [(19)-34]	80	100
CCCC(=O)Nc1cccc(CON=C(c2ccccc2)c2nnnn2C)n1 [(1)-6]	70	90
(Z)-(1-methyltetrazol-5-yl)phenylmethanoneoxime 0-(2-(n-pentyloxycarbonylamino)thiazol-4-yl)methyloxime [(4)-9]	80	100
CCCCCCOC(=O)Nc1cccc(CON=C(c2ccccc2)n2nnnc2C)n1 [(13)-15]	80	90
CCCCCOC(=O)Nc1cccc(CON=C(c2ccccc2)n2nnnc2C)n1 [(13)-9]	100	100
CCCCCCC(=O)Nc1nc(CON=C(c2ccccc2)n2nnnc2C)cs1 [(12)-18]	90	100
CCCC(=O)Nc1cccc(CON=C(c2ccc(Cl)cc2)c2nnnn2C)n1 [(7)-1]	70	80
CCCCCC(=O)Nc1cccc(CON=C(c2ccccc2)n2nnnc2C)n1 [(11)-12, (Z)-(5-methyltetrazol-1-yl)phenylmethanoneoxime 0-(6-(hexanoylamino)pyridin-2-yl)methyloxime]	100	100
CCCCCOC(=O)Nc1cccc(CON=C(c2ccccc2)c2nnnn2C)n1 [(3)-9]	100	100
Cn1nnnc1C(=NOCc1csc(NC(=O)C(C)(C)C)n1)c1ccccc1 [(2)-11]	100	100
CCCCOC(=O)Nc1cccc(CON=C(c2cccc(F)c2)n2nnnc2C)n1 [(19)-11]	80	90
Cc1nnnn1C(=NOCc1cccc(NC(=O)OC2CCCC2)n1)c1ccccc1 [(13)-21]	80	100
CCC(C)(C)OC(=O)Nc1cccc(CON=C(c2ccc(C)cc2)c2nnnn2C)n1 [(9)-9]	100	100
Cc1nnnn1C(=NOCc1cccc(NC(=O)C(C)C)n1)c1ccccc1 [(11)-7]	100	100

Compound	Control value (%) [1] [%]	Control value (%) [2] [%]
CCCCCC(=O)Nc1nc(CON=C(c2ccccc2)n2nnnc2C)cs1 [(12)-12, (Z)-(5-methyltetrazol-1-yl)phenylmethanoneoxime 0-(2-(n-hexanoylamino)thiazol-4-yl)methyloxime]	90	100
CCCCOC(=O)Nc1cccc(CON=C(c2ccc(C(C)(C)C)cc2)n2nnnc2C)n1 [(19)-35]	70	80
Cc1nnnn1C(=NOCc1cccc(NC(=O)OC2CCCCC2)n1)c1ccccc1 [(13)-22]	100	100
Cc1nnnn1C(=NOCc1cccc(NC(=O)OC(C)(C)C)n1)c1cccc(F)c1 [(19)-1]	100	100
CC(C)C(=O)Nc1nc(CON=C(c2ccc(Cl)cc2)c2nnnn2C)cs1 [(8)-2]	70	90
Cn1nnnc1C(=NOCc1cccc(NC(=O)OC2CCCC2)n1)c1ccccc1 [(3)-22]	100	100
Cn1nnnc1C(=NOCc1cccc(NC(=O)c2ccccc2)n1)c1ccccc1 [(5)-14]	90	100
Cc1nnnn1C(=NOCc1cccc(NC(=O)C(C)(C)C)n1)c1ccccc1 [(11)-11]	70	80
COc1ccc(C(=NOCc2cccc(NC(=O)C3CC3)n2)c2nnnn2C)cc1 [(7)-11]	70	80
CCCC(=O)Nc1cccc(CON=C(c2ccccc2)n2nnnc2C)n1 [(11)-6]	70	80
CCCCCOC(=O)Nc1cccc(CON=C(c2ccc(S(C)(=O)=O)cc2)n2nnnc2C)n1 [(19)-28]	100	100
Cc1ccc(C(=NOCc2cccc(NC(=O)OC(C)(C)C)n2)c2nnnn2C)cc1 [(9)-4]	100	100
CCCCOC(=O)Nc1cccc(CON=C(c2ccc(OC)cc2)n2nnnc2C)n1 [(19)-23]	70	80
CCCCCCC(=O)Nc1cccc(CON=C(c2ccccc2)c2nnnn2C)n1 [(1)-18]	100	100
Cn1nnnc1C(=NOCc1csc(NC(=O)C(C)(C)C)n1)c1ccc(Cl)cc1 [(8)-17]	90	80
CC(=O)Nc1cccc(CON=C(c2ccccc2)n2nnnc2C)n1 [(11)-4]	70	80
Cn1nnnc1C(=NOCc1cccc(NC(=O)OC(C)(C)C)n1)c1cccc(F)c1 [(9)-1]	100	100
CCCC(=O)Nc1nc(CON=C(c2ccccc2)n2nnnc2C)cs1 [(12)-6]	80	100
CCCCCCOC(=O)Nc1cccc(CON=C(c2ccccc2)c2nnnn2C)n1 [(3)-15]	100	100
CCC(=O)Nc1cccc(CON=C(c2ccccc2)n2nnnc2C)n1 [(11)-5]	70	80

Source: patent US7183299B2 (priority 2001, dated 2007)
